Data from patent US20210322393A1, “METHODS OF TREATING COGNITIVE IMPAIRMENT ASSOCIATED WITH NEURODEGENERATIVE DISEASE” (Aptinyx Inc., priority 2019, published 2021).

How the values were obtained:
Type in all cases: in vivo
Tolerability in rat = test: Tolerability in rat
[1] = Pharmacokinetic profile in dog
[2] = test system: rodent cognitive models (Morris water maze); test: Morris water maze rodent cognitive model
[3] = test system: MPTP non-human primate model of Parkinson's disease cognitive impairment; test: Chronic low dose MPTP non-human primate model of Parkinson's disease cognitive impairment
[4] = test system: rodent cognitive models (novel object recognition); test: Novel object recognition rodent cognitive model
Tolerability in dog = test: Tolerability in dog
[5] = Pharmacokinetic profile in rat

COc1ccc(CN2C[C@@]3(CCNC(=O)C3)C2=O)cc1 [The Compound, (S) 2-(4-methoxybenzyl)-2,7-diazaspiro[3.5]nonane-1,6-dione]
tolerability (Tolerability in rat): well tolerated | pharmacokinetic profile [1]: favorable pharmacokinetic profile | efficacy in Morris water maze [2]: robust efficacy | onset, size and duration of effect ([3]; MPTP non-human primate study): rapid, robust, and long lasting effect | effect on MPTP-induced cognitive deficits (attention, working memory, executive function) ([3]; primate versions of Cambridge Neuropsychological Test Automated Battery assessments): reversed MPTP-induced deficits in several cognitive domains | efficacy in novel object recognition [4]: robust efficacy | tolerability (Tolerability in dog): well tolerated | pharmacokinetic profile [5]: favorable pharmacokinetic profile
